Experimental data as given in patent publication US9365597B2, “Mitochondria-targeted inhibitors of cytochrome c peroxidase for protection from apoptosis” (Brock University, priority 2011, dated 2016).
“Also recorded” adds a separate entry of the source. Read-outs that look alike come from different tables or passages of the source.

Key:
cyt c/TOCL complexes [1] = target: T1, cyt c/TOCL complexes (Equus caballus, UniProt P00004); assay: Peroxidase activity of cyt c/TOCL complexes, H2O2-induced oxidation of Amplex Red to resorufin; format: biochemical; conditions: for inhibition of cyt c peroxidase compared with TPP-ISA: ratio of compound to cyt c of 2.5:1, TOCL:cyt c 25:1; for inhibition of peroxidase activity of cyt c/TOCL complexes (Amplex Red oxidation): cyt c 1 μM, CL/cyt c 25:1, 50 μM Amplex Red, 50 μM H2O2, 20 min
T1 construct: purchased Sigma (St. Louis, Mo.)
T1 sequence (P00004 2-105 limits assumed, one chain of several): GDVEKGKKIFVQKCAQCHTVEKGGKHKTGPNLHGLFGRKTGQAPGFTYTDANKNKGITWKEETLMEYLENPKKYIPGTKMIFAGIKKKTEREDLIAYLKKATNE
Method: Conditions: cyt c (1 μM), H2O2 (50 μM), Amplex Red (50 μM). Experiments were performed in 20 mM HEPES buffer (pH 7.4) containing DTPA (100 μM), cyt c was incubated with DOPC/TOCL liposomes (1:1) at a ratio of TOCL:cyt c of 25:1.
(§1) Peroxidase activity of cyt c was assessed by oxidation of Amplex Red, etoposide or TLCL (tetra-linoleoyl-cardiolipin). Measurements of Amplex Red oxidation were performed using fluorescence of its oxidation product resorufin. Cyt c (1 μM) was incubated with tetra-oleoyl-cardiolipin (TOCL) containing liposomes (CL/cyt c ratio 25:1). Then 50 μM Amplex Red and 50 μM H2O2 were added, and the incubation proceeded for an additional 20 min. Fluorescence was detected by employing a “Fusion α” universal microplate analyzer and by using an excitation wavelength of 535 nm and an emission wavelength of 590 nm. EPR spectra of etoposide phenoxyl radicals were recorded at 25° C. in gas permeable Teflon tubings (inner diameter, 0.8 mm; thickness, 0.013; Alpha Wire Corp., Elizabeth, N.J.). Volume of samples was 60 μL. The spectra were recorded under the following conditions: 335.3 mT, center field; 2 mT, sweep width; 0.04 mT, field modulation; 10 mW, microwave power; 0.1 s, time constant; 2 min, time scan. The time course of the etoposide radical EPR signal was obtained by repeated scanning of the field (0.15 mT, sweep width; 335.3 mT, center field) corresponding to a part of the EPR signal. Peroxidase activity of mitochondria was determined by the formation of resorufin from Amplex Red. Isolated mouse liver mitochondria (0.6 mg/ml) were incubated in the presence of 100 μM Amplex Red and 2 mM tert-butyl hydroperoxide (tBOOH). After incubation at room temperature for 20 min, fluorescence of resurufin was measured.
Small unilamellar liposomes were prepared from dioleoylphosphatidylcholine (DOPC) and TOCL (1:1 ratio) or DOPC and TLCL (4:1 ratio) by sonication in HEPES buffer (20 mM with 100 μM diethylene triamine pentaacetic acid (DTPA) (pH 7.4) 3×60 sec, relaxation time 2 min, 4° C.).
(§2) Peroxidase activity of cyt c was assessed by oxidation of Amplex Red, etoposide or TLCL as described above.

mouse embryonic cells = assay: Actinomycin D-induced cell death in mouse embryonic cells (Annexin V/PI); format: cell-based; conditions: 1 to 100 μM (BSA complexes), 100 ng ml^−1 ActD, 18 h
Method: IEOA or ISA were incubated in the presence of fatty acid-free bovine serum albumin (BSA) (Sigma) at a molar ratio of 5:1 at 37° C. for 30 min. Mouse embryonic cells were incubated with IEOA/BSA or ISA/BSA (100 μM) complexes for 30 min before the addition of 100 ng ml^−1 actinomycin D (ActD). After 18-h incubation with ActD, cell viability was analysed by flow cytometry using an Annexin V/PI kit. ActD-induced cell death in ˜34.2% of cells. […] Representative data with 100 μM IEOA/BSA and ISA/BSA complexes are shown. Data are means±s.d., n=3.

cyt c/TOCL complexes [2] = target: T1, cyt c/TOCL complexes; assay: Peroxidase activity of cyt c/TOCL complexes, H2O2-induced oxidation of etoposide (EPR of phenoxyl radicals); format: biochemical; conditions: H2O2-driven oxidation of etoposide
Method: as §1, §2

mouse liver mitochondria = assay: Peroxidase activity of isolated mouse liver mitochondria (Amplex Red, tBOOH); format: biochemical; conditions: 0.6 mg/ml mitochondria, 100 μM Amplex Red, 2 mM tBOOH, 20 min
Method: Peroxidase activity of cyt c was assessed by oxidation of Amplex Red, etoposide or TLCL (tetra-linoleoyl-cardiolipin). Measurements of Amplex Red oxidation were performed using fluorescence of its oxidation product resorufin. Cyt c (1 μM) was incubated with tetra-oleoyl-cardiolipin (TOCL) containing liposomes (CL/cyt c ratio 25:1). Then 50 μM Amplex Red and 50 μM H2O2 were added, and the incubation proceeded for an additional 20 min. Fluorescence was detected by employing a “Fusion α” universal microplate analyzer and by using an excitation wavelength of 535 nm and an emission wavelength of 590 nm. EPR spectra of etoposide phenoxyl radicals were recorded at 25° C. in gas permeable Teflon tubings (inner diameter, 0.8 mm; thickness, 0.013; Alpha Wire Corp., Elizabeth, N.J.). Volume of samples was 60 μL. The spectra were recorded under the following conditions: 335.3 mT, center field; 2 mT, sweep width; 0.04 mT, field modulation; 10 mW, microwave power; 0.1 s, time constant; 2 min, time scan. […] Peroxidase activity of mitochondria was determined by the formation of resorufin from Amplex Red. […] After incubation at room temperature for 20 min, fluorescence of resurufin was measured.
Finally, the ability of ISA and IEOA to inhibit peroxidase activity using isolated mouse liver mitochondria was assessed. […]

cyt c/TOCL complexes [3] = target: T1, cyt c/TOCL complexes; assay: Low-temperature (77 K) EPR of protein-immobilized (tyrosyl) radicals of cyt c/TOCL with H2O2; format: biochemical; conditions: cyt c 100 μM, H2O2 500 μM, EPR at 77 K
Method: EPR spectra of protein-immobilized (tyrosyl) radicals were recorded after the addition of H2O2 (500 μM) to cyt c (100 μM) incubated with tetra-oleoyl-cardiolipin (TOOL) liposomes at room temperature. After incubation for 20 s, the reaction was stopped by freezing the samples in liquid nitrogen. EPR spectra were obtained on a JEOL-REIX spectrometer with 100 kHz modulation (JEOL, Kyoto, Japan). EPR spectra from frozen samples were recorded at 77 K under the following conditions: center field, 3230 G; sweep width, 100 G; field modulation, 5 G; microwave power, 1 mW; receiver gain, 10^3; time constant, 0.1 s; time scan, 4 min.

cyt c/TOCL complexes [4] = target: T1, cyt c/TOCL complexes; assay: Haem-nitrosylation of cyt c/TOCL by nitroxyl from Angeli's salt, EPR at 77 K; format: biochemical; conditions: Angeli's salt 500 μM, 30 min
Method: Heme nitrosylation: Cyt c (100 μM) was incubated with a nitroxyl donor, Angeli's salt (500 μM), for 30 min at room temperature. The reaction was stopped by freezing the samples in liquid nitrogen. The EPR spectra of heme-nitrosylated cyt c were measured at 77 K under the following instrumental settings: center field, 3200 G; scan range, 500 G; field modulation, 5 G; microwave power, 10 mW; time constant, 0.1 s; scan time, 4 min; receiver gain, 10^3.

native ferri-cyt c = target: T2, native ferri-cyt c (Equus caballus, UniProt P00004); assay: Liquid-He (20 K) X-band EPR of haem-iron ligation, native cyt c; format: binding; conditions: pH 7.4, 20 K, no TOCL
T2 construct: purchased Sigma (St. Louis, Mo.)
T2 sequence (P00004 2-105 limits assumed): as the sequence (P00004 2-105 limits assumed, one chain of several) above
Method: (§3) Conditions: native cyt c (300 μM), IEOA/cyt c (2:1), TOCL/IEOA/cyt c (20:2:1), 20 mM HEPES buffer, pH 7.4. Samples (200 μl) were placed in 3 mm o.d. suprasil quartz EPR tubes and frozen in liquid nitrogen for subsequent spectroscopic measurements. X-band (9 GHz) EPR spectra were recorded on a Bruker ESP 300 spectrometer equipped with an Oxford Instruments ESR 910 flow cryostat for ultra-low-temperature measurements. Spectra were recorded at 9.8 G modulation amplitude and 200 μW microwave power. The microwave frequency was calibrated by a frequency counter and the magnetic field was calibrated with a gaussmeter. The temperature was calibrated with carbon-glass resistors (CGR-1-1000) from LakeShore. This instrument and the software (SpinCount) to analyse the EPR spectra were provided by Professor Mike Hendrich, Carnegie Mellon University.

cyt c/TOCL complex = target: T3, cyt c/TOCL complex (Equus caballus, UniProt P00004); assay: Liquid-He (20 K) X-band EPR of haem-iron ligation, cyt c/TOCL complex; format: binding
T3 construct: purchased Sigma (St. Louis, Mo.)
T3 sequence (P00004 2-105 limits assumed, one chain of several): as above
Method: as §3

[5] = TPP-IOA levels in plasma, small intestine and bone marrow after i.p. injection (LC-MS/MS, SRM); format: in vivo; conditions: C57BL/6NTac, mouse, ip, 10 min after i.p. injection, 5 mg/kg body weight
Method: TPP-IOA and its hydrolysis products were extracted from plasma, small intestine and bone marrow tissue 10 min after TPP-IOA i.p. injection into animals (5 mg/kg body weight), using a standard Folch procedure for extraction of lipids^37. In one set of runs, intact TPP-IOA was assessed by SRM as described below. In an identical set of duplicate runs, hydrolyzed TPP-IOA (in the form of the TPP moiety, see below) was assessed by a different mass spectrometric method, MRM, as described below.
TPP-IOA (m/z 651) was assessed by SRM in a LCQ-Duo ion trap mass spectrometer (Thermo, Inc., Waltham, Mass.). Chromatography was performed on an Eclipse XDB reverse phase C18 column (4.6 mm×15 cm, Agilent Technologies, Santa Clara, Calif.) using an isocratic solvent system consisting of acetonitrile:water:triethylamine:acetic acid (450:50:2.5:2.5, v/v/v/v) and a flow rate of 0.4 ml/min. The transition measured was 651>303 (TPP-IOA to TPP-propyl moiety—water) within a 0.5 Da window. Instrument conditions were as follows: spray voltage, 4.5 kV, positive mode; sheath gas, 30; capillary temperature, 250° C.; tube lens, 20; capillary voltage, 26. The instrument was tuned for the appropriate parent ion and all parameters were optimized to maximize the transition during the SRM including tuning under appropriate flow conditions.

Structure (SMILES)	inhibition of cyt c peroxidase compared with TPP-ISA (cyt c/TOCL complexes [1])	protection against ActD-induced cell death (mouse embryonic cells)	inhibition of peroxidase activity of cyt c/TOCL complexes (etoposide oxidation, EPR) (cyt c/TOCL complexes [2])	peroxidase activity of isolated mouse liver mitochondria (mouse liver mitochondria)	H2O2-dependent generation of protein-immobilized (tyrosyl) radicals (cyt c/TOCL complexes [3])	inhibition of peroxidase activity of cyt c/TOCL complexes (Amplex Red oxidation) (cyt c/TOCL complexes [1])	EPR signal of haem-nitrosylated cyt c/TOCL (cyt c/TOCL complexes [4])	other results
CCCCCCCCCCCCC(CCCCC(=O)OCCC[P+](c1ccccc1)(c1ccccc1)c1ccccc1)n1ccnc1.[Br-] (racemic) [TPP-6-imidazole-stearic acid, (3-((6-(1H-imidazol-1-yl)octadecanoyl)oxy)propyl)triphenylphosphonium bromide]	significantly better inhibitors of cyt c peroxidase than TPP-ISA							
CCCCCCCCCCC(CCCCCCC(=O)OCCC[P+](c1ccccc1)(c1ccccc1)c1ccccc1)n1ccnc1.[Br-] (racemic) [TPP-8-imidazole-stearic acid, (3-((8-(1H-imidazol-1-yl)octadecanoyl)oxy)propyl)triphenylphosphonium bromide]	significantly better inhibitors of cyt c peroxidase than TPP-ISA							
CCCCCCC(C/C=C/CCCCCCCC(=O)O)n1ccnc1 (stereo not drawn) [IEOA, (E)-12-(1H-imidazol-1-ium-1-yl)octadec-9-enoic acid]		exerted no protection against apoptosis; also recorded: no detectable protection	potent inhibitors	suppressed peroxidase activity in a concentration-dependent manner	effectively quenched generation of Tyr. radicals	potent inhibitors	concentration-dependent decrease of the EPR signal	
CCCCCCC(C/C=C\CCCCCCCC(=O)O)n1ccnc1 (stereo not drawn) [IOA, 12-(Imidazol-1-yl)-(Z)-9-octadecaenoate]			potent inhibitors		effectively quenched generation of Tyr. radicals	potent inhibitors		EPR spectrum (axial haem coordination) of native ferri-cyt c on addition of compound (native ferri-cyt c): no change in the EPR spectrum
CCCCCCC(CCCCCCCCCCC(=O)O)n1ccnc1 (stereo not drawn) [ISA, 12-(1H-imidazol-1-yl)octadecanoic acid]		exerted no protection against apoptosis; also recorded: no detectable protection	potent inhibitors	suppressed peroxidase activity in a concentration-dependent manner		potent inhibitors	concentration-dependent decrease of the EPR signal	change of haem-iron coordination in cyt c (Met80 substituted by imidazole moiety) (cyt c/TOCL complex): able to change haem-iron coordination in cyt c
CCCCCCC(C/C=C\CCCCCCCC(=O)OCCC[P+](c1ccccc1)(c1ccccc1)c1ccccc1)n1ccnc1.[Br-] (stereo not drawn) [TPP-IOA, 9-(Z)-(3-(12-imidazol-1-yl)octadeca-9-enoyloxy)propyl)triphenylphosphonium bromide]								concentration at 10 min ([5]; bone marrow, read-out: TPP-IOA level in bone marrow): 0.2 ng/g; concentration at 10 min ([5]; plasma, read-out: TPP-IOA level in plasma): 54 ng/mL; concentration at 10 min ([5]; small intestine, read-out: TPP-IOA level in small intestine): 1.5 ng/g
